In patent US20190011433A1, “CELL CO-CULTURE SYSTEMS AND USES THEREOF” (Dana-Farber Cancer Institute, Inc., priority 2007, published 2019):
Entries after “also recorded” stand apart in the source; their conditions may differ.

Assays:
[1] = tested on: KU812F-luc leukemia cells; test: CS-BLI drug sensitivity of KU812F-luc leukemia cells in presence vs absence of HS-5 BMSCs; format: cell-based; details: presence vs absence of HS-5 BMSCs (10,000 per well)
Description: In another set of experiments, Applicants tested and observed similar protective/sensitization effect of stroma cell on KU812F-luc cells on various drugs (data not shown).
(§1) Applicants expanded the application of in vitro compartment-specific bioluminescence imaging assays beyond the MM cells to other tumor models, namely a few leukemic cell lines. Applicants specifically tested luciferase-expressing K562-luc-neo and KU812F-luc-neo leukemic cells against standard anti-leukemia agents, including AraC and Doxo, in the presence vs. absence of HS-5 stromal cells (FIG. 7A and FIG. 7B).

[2] = tested on: K562-luc leukemia cells; test: CS-BLI drug sensitivity of K562-luc leukemia cells in presence vs absence of HS-5 BMSCs; format: cell-based; details: presence vs absence of HS-5 BMSCs (10,000 per well)
Description: as §1

[3] = tested on: Multiple myeloma (MM) cells; details: cited from earlier work
[4] = tested on: MM; details: cited from earlier work
[5] = tested on: MDA-MB-231met-luc-neo cells; test: CS-BLI drug sensitivity of MDA-MB-231met-luc-neo cells alone or with HS-5 BMSCs; format: cell-based; details: MDA-MB-231met-luc-neo alone or with HS-5 BMSCs (10,000/well), 48 hrs
Protocol: (§2) MDA-MB-231met-luc-neo (FIG. 18A, FIG. 18B), A375-luc-neo (FIG. 18C, FIG. 18D) and FRO-luc-neo (FIG. 18E, FIG. 18F) cells were plated either alone or mixed with HS-5 BMSCs (10,000 /well) and treated the following day. The cultures of tumor cells and their co-cultures with BMSCs were incubated for an additional 48 hrs.

[6] = tested on: FRO-luc-neo cells; test: CS-BLI drug sensitivity of FRO-luc-neo cells alone or with HS-5 BMSCs; format: cell-based; details: FRO-luc-neo alone or with HS-5 BMSCs (10,000/well), 48 hrs
Protocol: as §2

[7] = tested on: A375-luc-neo cells; test: CS-BLI drug sensitivity of A375-luc-neo cells alone or with HS-5 BMSCs; format: cell-based; details: A375-luc-neo alone or with HS-5 BMSCs (10,000/well), 48 hrs
Protocol: as §2

[8] = tested on: MM.1S-GFP-luc target cells; test: CS-BLI killing of MM.1S-GFP-luc target cells by IL-2 stimulated PBMCs; format: cell-based, human; details: for effect of concurrent drug exposure of co-culture on activity of PBMCs to kill tumor targets: 2 μM CC5013, 2 μM CC4047, 20 nM PS-341 or 100 nM Dex during co-culture; for effect of concurrent drug exposure of co-culture on activity of PBMCs to kill tumor targets / effect of drug pretreatment of PBMCs on activity of PBMCs to kill tumor targets: MM.1S-GFP-luc targets; for effect of drug pretreatment of PBMCs on activity of PBMCs to kill tumor targets: PBMCs pretreated 24 hrs with IL-2 plus 1 μM CC5013, 1 μM CC4047, 10 nM PS-341 or 50 nM Dexamethasone, washed
Protocol: (§3) PBMCs were isolated from a healthy donor, stimulated for 24 hrs with 10 ng/mL of IL-2 and then combined in culture with 5000 tumor target cells. The human multiple myeloma line, MM.1S-GFP-luc (FIG. 27A), was used as target cells and combined with PBMCs at 1:1, 1:5, 1:10, 1:20 and 1:40 ratios. The basophilic leukemia line, KU812F-luc-neo (FIG. 27B), was used as target cells and combined with PBMCs from the same donor at 1:1, 1:5, 1:10, 1:20 and 1:40 ratios. Viability of tumor cells was assessed using bioluminescence detection after the addition of luciferin substrate following 4 hours of co-culture with immune effector cells.
(§4) PBMCs were isolated from a healthy donor, stimulated for 24 hrs with IL-2 in the presence of either 1 μM CC5013 (FIG. 29A), 1 μM CC4047 (FIG. 29B), 10 nM PS-341 (FIG. 29C), or 50 nM Dexamethasone (FIG. 29D). PBMCs were washed and combined in culture with MM.1S-GFP-luc target cells at the 1:1, 1:2.5, 1:5, 1:10, 1:20 and 1:40 target to effector ratios.
PBMCs were isolated from a healthy donor, stimulated for 24 hrs with IL-2 in the presence or absence of 1 μM CC4047. MM.1S-GFP-luc cells were cultured in the presence or absence of 1 μM CC4047. PBMCs and MM.1S-GFP-luc cells were washed to remove drug and combined in culture with target MM.1S-GFP-luc target cells, either pretreated with 1 μM CC4047 or without, and combined at 1:1, 1:2.5, 1:5, 1:10, 1:20 and 1:40 target to effector ratios in the absence of drug.
PBMCs were isolated from a healthy donor, stimulated for 24 hrs with IL-2. PBMCs were combined in culture with MM.1S-GFP-luc target cells at the 1:1, 1:2.5, 1:5, 1:10, 1:20 and 1:40 target to effector ratios in the presence or absence of 2 μM CC5013 (FIG. 32A), 2 μM CC4047 (FIG. 32B), 20 nM PS-341 (FIG. 32C), or 100 nM Dex (FIG. 32D) during co-culture.

[9] = tested on: KU812F-luc-neo target cells; test: CS-BLI killing of KU812F-luc-neo target cells by IL-2 stimulated PBMCs; format: cell-based; details: for effect of concurrent drug exposure of co-culture on activity of PBMCs to kill tumor targets: 2 μM CC5013, 2 μM CC4047, 20 nM PS-341 or 100 nM Dex during co-culture; for effect of drug pretreatment of PBMCs on activity of PBMCs to kill tumor targets: PBMCs pretreated 24 hrs with IL-2 plus 1 μM CC5013, 1 μM CC4047, 10 nM PS-341 or 50 nM Dexamethasone, washed
Protocol: as §3
as §4, with “with” for “in the presence of”, “30A),” for “29A),”, “30B),” for “29B),”, “30C),” for “29C),”, “30D).” for “29D).”, “KU812F-luc-neo” for “MM.1S-GFP-luc”
PBMCs were isolated from a healthy donor, stimulated for 24 hrs with IL-2. PBMCs were then washed and combined in culture with KU812F-luc-neo target cells at the 1:1, 1:2.5, 1:5, 1:10, 1:20 and 1:40 target to effector ratios in the presence or absence 2 μM CC5013 (FIG. 33A), 2 μM CC4047 (FIG. 33B), 20 nM PS-341 (FIG. 33C), or 100 nM Dex (FIG. 33D).

[10] = tested on: MM-1S-GFP-luc myeloma cells; test: CS-BLI drug sensitivity of MM-1S-GFP-luc cells in presence vs absence of stromal cells; format: cell-based, human; details: presence vs absence of HS-5 BMSCs (10,000 per well)
Protocol: Luciferin (7.5 mg/mL; Xenogen Corp, Alameda, Calif.) was added at the volume stated in each experiment. Cell viability and the precise cell counts were established by Trypan blue exclusion assay immediately before plating of the cells. Compartment-specific bioluminescence emitted by individual wells of these plates was measured with two different bioluminescence imaging modalities, namely a Xenogen IVIS® Imaging System (FIG. 1A and FIG. 1B) and a standard luminometer plate reader—Luminoskan luminometer (Labsystems, MA) (FIG. 1C). The results with each method were analyzed for the linearity of the bioluminescent signal vs. cell number using the Living Image® software (Xenogen Corp, Alameda Calif.).

[11] = tested on: MM-1R-GFP-luc myeloma cells; test: CS-BLI drug sensitivity of MM-1R-GFP-luc cells in presence vs absence of stromal cells; details: MM-1R-GFP-luc (Dex-resistant), presence vs absence of HS-5 BMSCs (10,000 per well)

Cc1ccc(NC(=O)c2ccc(CN3CCN(C)CC3)cc2)cc1Nc1nccc(-c2cccnc2)n1 [Imatinib, imatinib]
effect of BMSC co-culture on tumor cell response to drug (protection) [1]: confer protection
effect of BMSC co-culture on tumor cell response to drug (protection) ([1]; listed as imatinib): develop stromal-derived resistance; also recorded: decreased the responsiveness
effect of BMSC co-culture on tumor cell response to drug (protection) [2]: do not confer protection
effect of BMSC co-culture on tumor cell response to drug (protection) ([2]; listed as imatinib): do not exhibit such phenotype

Nc1cccc2c1CN(C1CCC(=O)NC1=O)C2=O (stereo not shown) [lenalidomide]
single-agent in vitro anti-MM activity [3]: modest
anti-MM activity in vivo [4]: potent

Nc1ccn([C@@H]2O[C@H](CO)[C@@H](O)[C@@H]2O)c(=O)n1 [AraC]
effect of BMSC co-culture on tumor cell response to drug (protection) [1]: decreased the responsiveness; also recorded: confer protection
effect of BMSC co-culture on tumor cell response to drug (protection) ([1]; listed as Ara-C): develop stromal-derived resistance
effect of BMSC co-culture on tumor cell response to drug (protection) [2]: protection was observed
effect of BMSC co-culture on tumor cell response to drug (protection) [5]: modest protection
effect of BMSC co-culture on tumor cell response to drug (protection) [6]: no protection
effect of BMSC co-culture on tumor cell response to drug (protection) [7]: considerable level of protection

Nc1cccc2c1CN(C1CCC(=O)NC1=O)C2=O (stereo not shown) [CC5013]
effect of concurrent drug exposure of co-culture on activity of PBMCs to kill tumor targets [8]: had an increase in the activity
effect of drug pretreatment of PBMCs on activity of PBMCs to kill tumor targets [8]: did not have a significant impact
effect of concurrent drug exposure of co-culture on activity of PBMCs to kill tumor targets [9]: significant difference increasing the activity
effect of drug pretreatment of PBMCs on activity of PBMCs to kill tumor targets [9]: did not have a significant impact

Cc1cn(-c2cc(NC(=O)c3ccc(C)c(Nc4nccc(-c5cccnc5)n4)c3)cc(C(F)(F)F)c2)cn1 [nilotinib]
effect of BMSC co-culture on tumor cell response to drug (protection) [1]: confer protection
effect of BMSC co-culture on tumor cell response to drug (protection) [2]: do not confer protection

CC1=C2C(=O)[C@H]3[C@@H](CC=C4C[C@@H](O)CC[C@@]43C)[C@@H]2CC[C@]12O[C@@H]1C[C@H](C)CN[C@H]1[C@H]2C [11-keto-cyclopamine]
effect of BMSC co-culture on tumor cell response to drug (protection) [10]: conferred protection
effect of BMSC co-culture on tumor cell response to drug (protection) [11]: conferred protection

CC(C)C[C@H](NC(=O)[C@H](Cc1ccccc1)NC(=O)c1cnccn1)B(O)O [PS-341, bortezomib]
effect of BMSC co-culture on tumor cell response to drug (protection) ([10]; listed as bortezomib): did not abrogate the responsiveness
effect of concurrent drug exposure of co-culture on activity of PBMCs to kill tumor targets [8]: decreased activity
effect of drug pretreatment of PBMCs on activity of PBMCs to kill tumor targets [8]: did have a significant impact on blocking
effect of concurrent drug exposure of co-culture on activity of PBMCs to kill tumor targets [9]: significant difference blocking the activity
effect of drug pretreatment of PBMCs on activity of PBMCs to kill tumor targets [9]: did have a significant impact on blocking
effect of BMSC co-culture on tumor cell response to drug (protection) [11]: confer no protection
effect of BMSC co-culture on tumor cell response to drug (protection) ([11]; listed as bortezomib): did not abrogate the responsiveness

Nc1cccc2c1C(=O)N(C1CCC(=O)NC1=O)C2=O (stereo not shown) [CC4047]
effect of concurrent drug exposure of co-culture on activity of PBMCs to kill tumor targets [8]: increased activity
effect of drug pretreatment of target myeloma cells on killing by PBMCs ([8]; MM.1S-GFP-luc cells pretreated with 1 μM CC4047, washed): significant increase
effect of drug pretreatment of PBMCs on activity of PBMCs to kill tumor targets [8]: did not have a significant impact; also recorded: no significant increasing in activity
effect of concurrent drug exposure of co-culture on activity of PBMCs to kill tumor targets [9]: significant difference increasing the activity
effect of drug pretreatment of PBMCs on activity of PBMCs to kill tumor targets [9]: did have a significant impact on increasing

O=C1CCC(N2C(=O)c3ccccc3C2=O)C(=O)N1 (stereo not shown) [thalidomide]
single-agent in vitro anti-MM activity [3]: modest
anti-MM activity in vivo [4]: potent
